# Test results: ChEMBL document CHEMBL1141738, “Antihyperglycemic effects of N-containing sugars from Xanthocercis zambesiaca, Morus bombycis, Aglaonema treubii, and Castanospermum australe in streptozotocin-diabetic mice” (1998)
# The source made the active and inactive calls. The rule behind the calls is not given here.
# Experiments:
# [1] = tested on: Mus musculus; test: Antihyperglycemic effect in STZ-diabetic ddY mouse assessed as reduction in blood glucose level at 150 umol/kg, ip after 4 hrs by glucose oxidase method; assay type: functional, organism-based
# [2] = tested on: Mus musculus; test: Antihyperglycemic effect in STZ-diabetic ddY mouse assessed as reduction in blood glucose level at 150 umol/kg, ip after 4 to 6 hrs by glucose oxidase method; assay type: functional, organism-based
# [3] = organism: Mus musculus; test: Antihyperglycemic effect on STZ-diabetic ddY mouse assessed as reduction in blood glucose level by glucose oxidase method; assay type: functional, organism-based
# [4] = tested on: Mus musculus; test: Antihyperglycemic effect in STZ-diabetic ddY mouse assessed as reduction in blood glucose level at 30 umol/kg, ip after 6 hrs by glucose oxidase method; assay type: functional
# [5] = tested on: Pancreas; test: Potentiation of 8.3 mM glucose-induced immunoreactive insulin release in perfused Wistar rat pancreas by radioimmunoassay; assay type: functional, tissue-based
# [6] = tested on: Mus musculus; test: Antihyperglycemic effect on STZ-diabetic ddY mouse assessed as increase in plasma insulin level at 300 umol/kg, ip after 2 hrs by ELISA; assay type: functional
# [7] = tested on: Mus musculus; test: Antihyperglycemic effect on STZ-diabetic ddY mouse assessed as increase in plasma insulin level at 300 umol/kg, ip after 30 mins by ELISA; assay type: functional
# [8] = tested on: Mus musculus; test: Antihyperglycemic effect in STZ-diabetic ddY mouse assessed as reduction in blood glucose level at 150 umol/kg, ip after 2 hrs by glucose oxidase method; assay type: functional, organism-based; details: TDE = time-dependent effect
# [9] = tested on: Pancreas; test: Potentiation of 8.3 mM glucose-induced immunoreactive insulin release in perfused Wistar rat pancreas at 1 mM by radioimmunoassay; assay type: functional, tissue-based
smiles,measurement,setting,value
OC[C@H]1N[C@H](CO)[C@@H](O)[C@@H]1O,Activity,[1],Active
O[C@H]1[C@H](O)[C@@H](O)CN2CC[C@H](O)[C@H]12,Activity,[2],Active
OC[C@H]1NCC[C@@H](O)[C@@H]1O[C@@H]1O[C@H](CO)[C@@H](O)[C@H](O)[C@H]1O,Activity,[3],Dose-dependent effect
COc1ccc(Cl)cc1C(=O)NCCc1ccc(S(=O)(=O)NC(=O)NC2CCCCC2)cc1 [GLYBURIDE],Activity,[4],138 mg/dL
OC[C@H]1NCC[C@@H](O)[C@@H]1O [FAGOMINE],Activity,[5],Dose-dependent effect
same,Activity,[6],560 pg/mL
same,Activity,[7],454 pg/mL
same,Activity,[8],tde
same,Activity,[9],Active
